Key:
[1] = test system: genotype A, "Long" strain RSV; experiment: RSV-A assay (CPE protection in Hep-2 cells, ATPlite readout); format: cell-based, Human respiratory syncytial virus (HRSV); conditions: human respiratory syncytial virus, RSV-A Long strain, MOI 0.1, CPE protection, read-out: Human RSV-A (“Long”) EC50
How it was run: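 Protection from RSV-induced cytopathic effect measured by ATP content (ATPlite) after 5-day culture. Infection used genotype A Long virus at MOI 0.1 on 8,000 Hep-2 cells per well, with compound serially diluted 2-fold; values are EC50.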

[2] = test system: HMPV clinical isolate TN/1501/A1; experiment: HMPV antiviral assay Method-B (clinical isolate TN/1501/A1 in LLC-MK2 cells, ATP-Lite readout); format: cell-based, Human metapneumovirus (HMPV); conditions: human metapneumovirus, LLC-MK2, 144 h, hMPV WT1501 (clinical isolate TN/1501/A1), 6 days
How it was run: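 LLC-MK2 cells infected in suspension with TN/1501/A1 at MOI 0.014 in serum-free medium with 2 μg/mL TPCK-trypsin (final), incubated 6 days at 37° C. Compounds tested in duplicate, 10-point 3-fold dilutions from 10 μM. Cell health read by ATP-Lite luminescence, normalised to virus-only and cells-only controls; EC50 by four-parameter logistic fit.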

Row | Compound | EC50 [1] [nM] | EC50 [2] [nM]
1 | COc1cc(C(=O)NC[C@](O)(c2cc3c(c(-c4ccc(C5(C#N)CC5)cc4)n2)OC[C@]3(C)C(N)=O)C(F)(F)F)cc2cn(C3CC3)nc12 [Example 981] | > 200 | > 500
2 | COc1cc(C(=O)NC[C@](O)(c2cc3c(c(-c4ccc5c(c4)CCC5)n2)OC[C@]3(C)C(N)=O)C(F)(F)F)cc2cn(C3CC3)nc12 [Example 984] | > 200 | > 500
3 | COc1cc(C(=O)NC[C@](O)(c2cc3c(c(-c4ccc5c(c4)C(F)(F)C(=O)N5)n2)OC[C@]3(C)C(N)=O)C(F)(F)F)cc2cn(C3CC3)nc12 [Example 995] | > 200 | > 500
4 | COc1cc(C(=O)NC[C@](O)(c2cc3c(c(-c4ccc(F)cc4)n2)OC[C@@]3(C(N)=O)C(F)F)C(F)(F)F)cc2cc(Cl)c(C)nc12 [Example 1001] | < 200 | < 500
5 | COc1cc(C(=O)NC[C@](O)(c2cc3c(c(-c4ccc(F)c(Cl)c4)n2)OC[C@]3(C(N)=O)C(F)F)C(F)(F)F)cc2cn(C3CC3)nc12 [Example 1002] | > 200 | > 500
6 | COc1cc(C(=O)NC[C@](O)(c2cc3c(c(-c4ccc(F)c(Cl)c4)n2)OC[C@@]3(C(N)=O)C(F)F)C(F)(F)F)cc2cn(C3CC3)nc12 [Example 1003] | < 200 | < 500
7 | COc1cc(C(=O)NC[C@](O)(c2cc3c(c(-c4ccc(F)c(Cl)c4)n2)OC[C@]3(C(N)=O)C(F)F)C(F)(F)F)cc2cc(Cl)c(C)nc12 [Example 1004] | > 200 | > 500
8 | COc1cc(C(=O)NC[C@](O)(c2cc3c(c(-c4ccc(F)c(Cl)c4)n2)OC[C@@]3(C(N)=O)C(F)F)C(F)(F)F)cc2cc(Cl)c(C)nc12 [Example 1005] | < 200 | < 500
9 | Cc1cnc2c(OC(F)F)cc(C(=O)NC[C@](O)(c3cc4c(c(-c5ccc(F)cc5)n3)OC[C@]4(C(N)=O)C(F)F)C(F)(F)F)cc2c1 [Example 1006] | > 200 | > 500
10 | Cc1cnc2c(OC(F)F)cc(C(=O)NC[C@](O)(c3cc4c(c(-c5ccc(F)cc5)n3)OC[C@@]4(C(N)=O)C(F)F)C(F)(F)F)cc2c1 [Example 1007] | < 200 | < 500
11 | Cc1cnc2c(OC(F)F)cc(C(=O)NC[C@](O)(c3cc4c(c(-c5ccc(F)c(Cl)c5)n3)OC[C@]4(C(N)=O)C(F)F)C(F)(F)F)cc2c1 [Example 1008] | > 200 | > 500
12 | Cc1cnc2c(OC(F)F)cc(C(=O)NC[C@](O)(c3cc4c(c(-c5ccc(F)c(Cl)c5)n3)OC[C@@]4(C(N)=O)C(F)F)C(F)(F)F)cc2c1 [Example 1009] | < 200 | < 500
13 | COc1cc(C(=O)NC[C@](O)(c2cc3c(c(-c4ccc5c(c4)OC(F)(F)O5)n2)OC[C@]3(C(N)=O)C(F)F)C2CC2)cc2cn(C3CC3)nc12 [Example 1010] | > 200 | > 500
14 | COc1cc(C(=O)NC[C@](O)(c2cc3c(c(-c4ccc5c(c4)OC(F)(F)O5)n2)OC[C@@]3(C(N)=O)C(F)F)C2CC2)cc2cn(C3CC3)nc12 [Example 1011] | < 200 | < 500
15 | COc1cc(C(=O)NC[C@](O)(c2cc3c(c(-c4ccc5c(c4)OC(F)(F)O5)n2)OC[C@]3(C(N)=O)C(F)F)C2CC2)cc2cc(C3CC3)nn12 [Example 1012] | > 200 | > 500
16 | COc1cc(C(=O)NC[C@](O)(c2cc3c(c(-c4ccc5c(c4)OC(F)(F)O5)n2)OC[C@@]3(C(N)=O)C(F)F)C2CC2)cc2cc(C3CC3)nn12 [Example 1013] | < 200 | < 500
17 | COc1cc(C(=O)NC[C@](O)(c2cc3c(c(-c4ccc5c(c4)OC(F)(F)O5)n2)OC[C@]3(C(N)=O)C(F)F)C2CC2)cc2cc(Cl)c(C)nc12 [Example 1014] | < 200 | < 500
18 | COc1cc(C(=O)NC[C@](O)(c2cc3c(c(-c4ccc5c(c4)OC(F)(F)O5)n2)OC[C@@]3(C(N)=O)C(F)F)C2CC2)cc2cc(Cl)c(C)nc12 [Example 1015] | < 200 | < 500
19 | COc1cc(C(=O)NC[C@](O)(c2cc3c(c(-c4ccc(F)c(Cl)c4)n2)OC[C@]3(C(N)=O)C(F)F)C(F)(F)F)cc2sc(C3CC3)nc12 [Example 1016] | > 200 | > 500
20 | COc1cc(C(=O)NC[C@](O)(c2cc3c(c(-c4ccc(F)c(Cl)c4)n2)OC[C@@]3(C(N)=O)C(F)F)C(F)(F)F)cc2sc(C3CC3)nc12 [Example 1017] | < 200 | < 500
21 | COc1cc(C(=O)NC[C@](O)(c2cc3c(c(-c4ccc(F)c(Cl)c4)n2)OC[C@]3(C(N)=O)C(F)F)C(F)(F)F)cc2sc(C)nc12 [Example 1018] | > 200 | > 500

Now from value to compound:

Row | EC50 [1] [nM] | EC50 [2] [nM] | Compound
22 | < 200 | < 500 | COc1cc(C(=O)NC[C@](O)(c2cc3c(c(-c4ccc(F)c(C(F)(F)F)c4)n2)OC[C@]3(C)C(N)=O)C(F)(F)F)cc2cn(C3CC3)nc12 [Example 974]
23 | < 200 | < 500 | COc1cc(C(=O)NC[C@](O)(c2cc3c(c(-c4cccc(Cl)c4)n2)OC[C@]3(C)C(N)=O)C(F)(F)F)cc2cn(C3CC3)nc12 [Example 975]
24 | < 200 | > 500 | COc1cc(C(=O)NC[C@](O)(c2cc3c(c(-c4ccc(OC5CC5)cc4)n2)OC[C@]3(C)C(N)=O)C(F)(F)F)cc2cn(C3CC3)nc12 [Example 976]
25 | < 200 | > 500 | COc1cc(C(=O)NC[C@](O)(c2cc3c(c(-c4cccc(C5CC5)c4)n2)OC[C@]3(C)C(N)=O)C(F)(F)F)cc2cn(C3CC3)nc12 [Example 977]
26 | < 200 | > 500 | COc1cc(C(=O)NC[C@](O)(c2cc3c(c(-c4cccc(OC(F)(F)F)c4)n2)OC[C@]3(C)C(N)=O)C(F)(F)F)cc2cn(C3CC3)nc12 [Example 978]
27 | < 200 | < 500 | COc1cc(C(=O)NC[C@](O)(c2cc3c(c(-c4ccc(OCC(F)F)cc4)n2)OC[C@]3(C)C(N)=O)C(F)(F)F)cc2cn(C3CC3)nc12 [Example 979]
28 | < 200 | < 500 | COc1cc(C(=O)NC[C@](O)(c2cc3c(c(-c4ccc5c(c4)CC5)n2)OC[C@]3(C)C(N)=O)C(F)(F)F)cc2cn(C3CC3)nc12 [Example 980]
29 | < 200 | > 500 | C#Cc1ccc(-c2nc([C@@](O)(CNC(=O)c3cc(OC)c4nn(C5CC5)cc4c3)C(F)(F)F)cc3c2OC[C@]3(C)C(N)=O)cc1 [Example 982]
30 | < 200 | > 500 | COc1cc(C(=O)NC[C@](O)(c2cc3c(c(-c4ccc(OC(F)(F)F)c(Cl)c4)n2)OC[C@]3(C)C(N)=O)C(F)(F)F)cc2cn(C3CC3)nc12 [Example 983]
31 | < 200 | < 500 | COc1cc(C(=O)NC[C@](O)(c2cc3c(c(-c4ccc(F)c(F)c4)n2)OC[C@]3(C)C(N)=O)C(F)(F)F)cc2cn(C3CC3)nc12 [Example 985]
32 | < 200 | < 500 | COc1cc(C(=O)NC[C@](O)(c2cc3c(c(-c4ccc(Cl)c(F)c4)n2)OC[C@]3(C)C(N)=O)C(F)(F)F)cc2cn(C3CC3)nc12 [Example 986]
33 | < 200 | < 500 | COc1cc(C(=O)NC[C@](O)(c2cc3c(c(-c4ccc(Cl)cc4F)n2)OC[C@]3(C)C(N)=O)C(F)(F)F)cc2cn(C3CC3)nc12 [Example 987]
34 | < 200 | < 500 | COc1cc(C(=O)NC[C@](O)(c2cc3c(c(-c4cccc(F)c4F)n2)OC[C@]3(C)C(N)=O)C(F)(F)F)cc2cn(C3CC3)nc12 [Example 988]
35 | < 200 | < 500 | COc1cc(C(=O)NC[C@](O)(c2cc3c(c(-c4c(F)cccc4Cl)n2)OC[C@]3(C)C(N)=O)C(F)(F)F)cc2cn(C3CC3)nc12 [Example 989]
36 | < 200 | < 500 | COc1cc(C(=O)NC[C@](O)(c2cc3c(c(-c4cc(Cl)ccc4F)n2)OC[C@]3(C)C(N)=O)C(F)(F)F)cc2cn(C3CC3)nc12 [Example 990]
37 | < 200 | < 500 | COc1cc(C(=O)NC[C@](O)(c2cc3c(c(-c4cc(F)ccc4Cl)n2)OC[C@]3(C)C(N)=O)C(F)(F)F)cc2cn(C3CC3)nc12 [Example 991]
38 | < 200 | < 500 | COc1cc(C(=O)NC[C@](O)(c2cc3c(c(-c4cc(F)ccc4F)n2)OC[C@]3(C)C(N)=O)C(F)(F)F)cc2cn(C3CC3)nc12 [Example 992]
39 | < 200 | < 500 | COc1cc(C(=O)NC[C@](O)(c2cc3c(c(-c4ccc(F)cc4Cl)n2)OC[C@]3(C)C(N)=O)C(F)(F)F)cc2cn(C3CC3)nc12 [Example 993]
40 | < 200 | < 500 | COc1cc(C(=O)NC[C@](O)(c2cc3c(c(-c4ccc(C(F)(F)F)s4)n2)OC[C@]3(C)C(N)=O)C(F)(F)F)cc2cn(C3CC3)nc12 [Example 994]
41 | < 200 | < 500 | COc1cc(C(=O)NC[C@](O)(c2cc3c(c(-c4cc(F)c(F)c(F)c4F)n2)OC[C@]3(C)C(N)=O)C(F)(F)F)cc2cn(C3CC3)nc12 [Example 996]
42 | < 200 | < 500 | COc1cc(C(=O)NC[C@](O)(c2cc3c(c(-c4c(F)cc(F)cc4F)n2)OC[C@]3(C)C(N)=O)C(F)(F)F)cc2cn(C3CC3)nc12 [Example 997]
43 | < 200 | < 500 | COc1cc(C(=O)NC[C@](O)(c2cc3c(c(-c4ccc(F)cc4)n2)OC[C@@]3(C(N)=O)C(F)F)C(F)(F)F)cc2cn(C3CC3)nc12 [Example 999]
44 | < 200 | > 500 | COc1cc(C(=O)NC[C@](O)(c2cc3c(c(-c4ccc(F)cc4)n2)OC[C@]3(C(N)=O)C(F)F)C(F)(F)F)cc2cc(Cl)c(C)nc12 [Example 1000]
